In assay [1] the target is T1, CETP (Homo sapiens, UniProt P11597).
T1 sequence (P11597 18-493): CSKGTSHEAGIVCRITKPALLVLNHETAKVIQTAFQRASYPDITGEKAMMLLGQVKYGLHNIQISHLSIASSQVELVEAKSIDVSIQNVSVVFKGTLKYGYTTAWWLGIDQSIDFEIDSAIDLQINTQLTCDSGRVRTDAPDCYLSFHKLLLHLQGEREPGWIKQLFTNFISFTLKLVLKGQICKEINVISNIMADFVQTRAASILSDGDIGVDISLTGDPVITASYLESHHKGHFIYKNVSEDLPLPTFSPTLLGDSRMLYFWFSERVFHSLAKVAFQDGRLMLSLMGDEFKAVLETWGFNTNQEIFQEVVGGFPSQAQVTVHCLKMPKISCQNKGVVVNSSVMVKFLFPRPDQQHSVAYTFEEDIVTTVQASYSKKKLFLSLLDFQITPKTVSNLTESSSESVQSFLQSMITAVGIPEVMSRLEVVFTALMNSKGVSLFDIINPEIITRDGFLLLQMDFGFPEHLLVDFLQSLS
Description: Ex vivo CETP activity inhibitory effect of plasma from transgenic mice. The arrangement: from tissue; host or cells: plasma of transgenic mice carrying the human CETP gene. Particulars: mouse, po, p.o., 6 hours after administration, transgenic mice with human CETP gene, read-out: CETP activity inhibitory rate in plasma from transgenic mouse. On the procedure: Potassium bromide (KBr) was added to the plasma of healthy subjects (40 ml) to adjust specific gravity to d=1.125 g/ml. Density gradient centrifugation (227,000×g, 4° C., 17 hours) was conducted to obtain a fraction with specific gravity d>1.125 g/ml (HDL3 fraction). The fraction thus obtained was dialyzed against a PBS solution [10 mM Na2HPO4/10 mM NaH2PO4/0.15 M NaCl/1 mM EDTA (pH 7.4)]. Then, tritium-labeled cholesterol (10 nM) (50.3 Ci/mM) was dissolved in 95% ethanol and added gradually to the above HDL3 fraction under stirring. The solution was incubated for 18 hours at 37° C. [Tritium-labeled cholesterol was esterified by this procedure by the action of lecithin:cholesterol acyltransferase (LCAT) present on the surface of HDL3 and taken up into the interior of HDL3 as tritium-labeled cholesterylester ([^3H]CE)]. After incubation, KBr was added and specific gravity was adjusted to d=1.21 g/ml. Density gradient centrifugation (227,000×g, 4° C., 17 hours) was conducted and the fraction with d<1.21 g/ml was harvested. The fraction thus obtained was dialyzed against the above PBS solution to obtain HDL3 that took up [^3H]CE ([^3H]CE-HDL3, specific gravity: 1.125<d<1.21, specific activity: 101,000 dpm/nM), which served as donor lipoprotein.
Physiological saline (specific gravity d=1.006 g/ml) was layered upon the plasma of healthy subjects (100 ml). Density gradient centrifugation (227,000×g, 4° C., 4 hours) was conducted and the fraction with specific gravity d>1.006 g/ml was harvested. KBr was added to the fraction thus obtained to adjust specific gravity to d=1.063 g/ml and density gradient centrifugation (227,000×g, 4° C., 20 hours) was conducted to harvest the fraction with specific gravity […]. The thus-obtained fraction was dialyzed against the above PBS solution to obtain fractions containing IDL and LDL (specific gravity: 1.006<d<1.063), which served as acceptor lipoprotein.
Samples were suspended in a 0.5% methylcellulose solution and administered orally using a plastic probe to transgenic mice having introduced human CETP gene (hereafter referred to as mice; prepared using the method described in Japanese Patent Application No. Hei 8-130660), which had been fasted overnight. Blood was collected before administration, and 6 hours after administration CETP activity in the plasma was determined using the following method.
Donor lipoprotein ([^3H]CE-HDL3, containing 0.21 μg cholesterol) obtained in the above (1), acceptor lipoprotein obtained in the above (2) (containing 21 μg of cholesterol), and 0.9 μl of mice plasma were added to microtubes. A total volume was adjusted to 600 μl/tube with a TBS solution [10 mM Tris/0.15 M NaCl (pH 7.4)]. The microtubes were incubated for 15 hours at 37° C. or 4° C. Then, an ice-cooled TBS solution (400 μl/tube) and a 0.3% dextran sulfate solution (100 μl/tube) containing 0.15 M magnesium chloride were added to the microtubes and mixed well. After allowing the microtubes to stand for 30 minutes at 4° C., centrifugation (8,000 rpm, 4° C., 10 minutes) was carried out and radioactivity of the resulting supernatant (HDL fraction) was determined with a scintillation counter.

The target of assay [2] is T1, CETP. Description: In vitro CETP activity inhibitory effect in whole plasma. The arrangement: Plasma containing [^3H]CE-HDL3 (600,000 dpm/ml) was prepared by adding donor lipoprotein obtained in the above (1) to plasma from healthy subjects; from tissue; host or cells: whole plasma of healthy subjects. Type of assay: biochemical. Particulars: plasma from healthy subjects containing [3H]CE-HDL3, incubated 4 hours at 37° C.; read-out: CETP activity inhibition in whole plasma IC50. In a few lines:
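HDL3 was labelled with tritiated cholesterol (10 nM) for 18 h at 37° C in PBS with EDTA (pH 7.4). Test samples were in 1:1 N-methylpyrrolidone/PEG 400 and assayed in whole plasma. IC50 was calculated from % inhibition of CETP activity.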

Molecules are shown by their SMILES.

A word on the IC50: it is the point on the concentration scale where inhibition reaches its midpoint.

As to `CC(C)CCC1(C(=O)Nc2cc(C(F)(F)F)ccc2SC(=O)C(C)(C)C)CCCCC1` [Example 52], at CETP [1], the inhibition at 30 mg/kg was found to be 8%. For the same compound, the IC50 at CETP [2] turned out to be 8 µM.
Turning to `CC(C)CCC1(C(=O)Nc2cc([N+](=O)[O-])ccc2SC(=O)C(C)(C)C)CCCCC1` [Example 74], on CETP [1], the inhibition at 30 mg/kg is 5%. The IC50 at CETP [2] stood at 14 µM.
`Cc1ccc(S)c(NC(=O)C2(CCC(C)C)CCCCC2)c1` [Example 22]: at CETP [1], the inhibition at 10 mg/kg came out at 22% and the inhibition at 30 mg/kg came to 44%. Also, the IC50 on CETP [2] is 56 µM.
For the compound `CC(C)CCC1(C(=O)Nc2ccccc2SC(=O)NC(C)(C)C)CCCCC1` [Example 25-97], at CETP [1], the inhibition at 100 mg/kg came out at 19%. For the same compound, the IC50 at CETP [2] stood at 9 µM.
As for `COCC(=O)Sc1ccccc1NC(=O)C1(CCC(C)C)CCCCC1` [Example 37], at CETP [1], the inhibition at 10 mg/kg worked out at 18%, the inhibition at 30 mg/kg stood at 42% and the inhibition at 100 mg/kg came out at 47%. The IC50 on CETP [2] was 7 µM.
With `CCC(=O)Sc1ccccc1NC(=O)C1(CCC(C)C)CCCCC1` [Example 38], on CETP [1], the inhibition at 10 mg/kg stood at 15% and the inhibition at 30 mg/kg came out at 40%. In addition, at CETP [2], the IC50 was 6 µM.
The corresponding values for `CSCC[C@H](NC(C)=O)C(=O)Sc1ccccc1NC(=O)C1(CCC(C)C)CCCCC1` [Example 25-57] are 18%, 46% and 7 µM.
The like results for `CC(C)CCC1(C(=O)Nc2ccccc2SC(=O)C(C)(C)O)CCCCC1` [Example 46] were, in that order, 22%, 48% and 5 µM.
Regarding `CCC(CC)CC1(C(=O)Nc2ccccc2SC(=O)COc2ccc(Cl)cc2)CCCCC1` [Example 63], the inhibition at 30 mg/kg on CETP [1] was found to be 43%. Also, the IC50 on CETP [2] amounted to 4 µM.
As for `CC(C)CCC1(C(=O)Nc2ccccc2S)CCCCC1` [Example 11, N-(2-mercaptophenyl)-1-isopentylcyclohexanecarboxamide], on CETP [1], the inhibition at 10 mg/kg was determined as 27%, the inhibition at 30 mg/kg was determined as 45% and the inhibition at 100 mg/kg amounted to 57%. On CETP [2], the 50% inhibitory concentration (IC50) is 5 µM.
On to `CC(C)CCC1(C(=O)Nc2cc(Cl)c(Cl)cc2SC(=O)NC(C)(C)C)CCCC1` [Example 25-108], for which the inhibition at 100 mg/kg on CETP [1] turned out to be 8%. At CETP [2], the IC50 was 7 µM.
As for `CC(C)CCC1(C(=O)Nc2ccc(F)cc2SC(=O)C(C)(C)C)CCCCC1` [Example 81], at CETP [1], the inhibition at 30 mg/kg is 10%. On CETP [2], the IC50 came to 21 µM.
Consider `CC(C)CCC1(C(=O)Nc2ccccc2SSc2ccccc2NC(=O)C2(CCC(C)C)CCCCC2)CCCCC1` [Example 8], for which the inhibition at 100 mg/kg at CETP [1] is 25%. Besides, on CETP [2], the concentration for half-maximal inhibition (IC50) is 3 µM.
Consider `CCC(CC)CC1(C(=O)Nc2ccccc2SC(=O)COC)CCCCC1` [Example 61], for which the inhibition at 30 mg/kg on CETP [1] came out at 38%. Moreover, at CETP [2], the IC50 amounted to 4 µM.
Regarding `CC(=O)Sc1cc(Cl)c(Cl)cc1NC(=O)C1(CCC(C)C)CCCCC1` [Example 25-84], on CETP [1], the inhibition at 100 mg/kg turned out to be 17%. In addition, the IC50 at CETP [2] worked out at 10 µM.
Turning to `CC(C)CCC1(C(=O)Nc2cc(C#N)ccc2SC(=O)C(C)(C)C)CCCCC1` [Example 75], the inhibition at 30 mg/kg on CETP [1] was determined as 1%. Further, the IC50 at CETP [2] was found to be 25 µM.
The like results for `CC(C)CCC1(C(=O)Nc2ccccc2SC(=O)c2ccccc2Cl)CCCCC1` [Example 25-49] were, in that order, 16% and 21 µM.
The corresponding values for `CCC(CC)CC1(C(=O)Nc2ccccc2SC(=O)C(C)C)CCCCC1` [Example 26, S-[2-[1-(2-ethylbutyl)cyclohexanecarbonylamino]-phenyl]2-methylthiopropionate] are 44% and 7 µM.
`CC(C)CCC1(C(=O)Nc2cc(F)ccc2SC(=O)C(C)(C)C)CCCCC1` [Example 79]: at CETP [1], the inhibition at 10 mg/kg is 14% and the inhibition at 30 mg/kg was determined as 26%. Besides, the IC50 at CETP [2] was found to be 60 µM.
Regarding `CCC(CC)CC1(C(=O)Nc2ccccc2SC(=O)C2CCN(C(C)=O)CC2)CCCCC1` [Example 28, S[2-[1-(2-ethylbutyl)cyclohexanecarbonylamino)-phenyl]1-acetylpiperidine-4-thiocarboxylate], at CETP [1], the inhibition at 30 mg/kg was 36%. Further, on CETP [2], the IC50 was found to be 6 µM.
The corresponding values for `CC(C)CCC1(C(=O)Nc2ccccc2SC(=O)C2CCN(C)CC2)CCCCC1` [Example 25-53] are 26% and 7 µM.
Regarding `CC(C)CCC1(C(=O)Nc2cc(F)c(F)cc2SC(=O)C(C)(C)C)CCCCC1` [Example 80], at CETP [1], the inhibition at 30 mg/kg came out at 12%. In addition, the IC50 at CETP [2] turned out to be 6 µM.
On to `CC(C)CCC1(C(=O)Nc2ccccc2SC(=O)NC(C)(C)C)CCCC1` [Example 25-105], for which the inhibition at 100 mg/kg on CETP [1] was found to be 14%. Also, the IC50 at CETP [2] amounted to 6 µM.
Take `CC(C)CCC1(C(=O)Nc2ccc(Cl)cc2SC(=O)C(C)(C)C)CCCCC1` [Example 77]: at CETP [1], the inhibition at 30 mg/kg worked out at 1%. In addition, at CETP [2], the IC50 stood at 17 µM.
Turning to `CC(C)CCC1(C(=O)Nc2ccccc2SC(=O)c2ccc([N+](=O)[O-])cc2)CCCCC1` [Example 25-46], the inhibition at 100 mg/kg on CETP [1] is 35%. Moreover, the half-maximal inhibitory concentration (IC50) on CETP [2] amounted to 9 µM.
Turning to `CCC(CC)CC1(C(=O)Nc2ccccc2SC(C)=O)CCCCC1` [Example 59], at CETP [1], the inhibition at 30 mg/kg came out at 44%. For the same compound, at CETP [2], the IC50 was determined as 4 µM.
The corresponding values for `CC(=O)N[C@H](C(=O)Sc1ccccc1NC(=O)C1(CCC(C)C)CCCCC1)C(C)C` [Example 25-45] are 21% and 13 µM.
The like results for `COc1ccc(NC(=O)Sc2ccccc2NC(=O)C2(CCC(C)C)CCCC2)cc1` [Example 25-107] were, in that order, 22% and 11 µM.
With `COc1ccc(NC(=O)Sc2ccccc2NC(=O)C2(CCC(C)C)CCCCC2)cc1` [Example 25-100], the inhibition at 30 mg/kg on CETP [1] stood at 25%. Besides, the half-inhibitory concentration (IC50) on CETP [2] came to 16 µM.
The corresponding values for `Cc1ccc(NC(=O)C2(CCC(C)C)CCCCC2)c(S)c1` [Example 24] are 29% and 29 µM.
On to `CC(C)CCC1(C(=O)Nc2cc(Cl)c(Cl)cc2SC(=O)NC(C)(C)C)CCCCC1` [Example 25-102], for which, on CETP [1], the inhibition at 100 mg/kg worked out at 9%. Besides, the 50% inhibitory concentration (IC50) at CETP [2] was found to be 8 µM.

These data come from US9000045B2, “CETP activity inhibitors” (Japan Tobacco Inc., priority 1997, dated 2015).
